# Measurements taken from ChEMBL document CHEMBL1130060, “Novel prodrugs of cyanamide that inhibit aldehyde dehydrogenase in vivo” (1997).
# Experiments:
# [1] = target: T1, Aldehyde dehydrogenase 1A1 (Rattus norvegicus) (UniProt P51647); assay: Inhibitory activity against aldehyde dehydrogenase in rats.; conditions: concentration not given here
# T1 sequence (whole entry): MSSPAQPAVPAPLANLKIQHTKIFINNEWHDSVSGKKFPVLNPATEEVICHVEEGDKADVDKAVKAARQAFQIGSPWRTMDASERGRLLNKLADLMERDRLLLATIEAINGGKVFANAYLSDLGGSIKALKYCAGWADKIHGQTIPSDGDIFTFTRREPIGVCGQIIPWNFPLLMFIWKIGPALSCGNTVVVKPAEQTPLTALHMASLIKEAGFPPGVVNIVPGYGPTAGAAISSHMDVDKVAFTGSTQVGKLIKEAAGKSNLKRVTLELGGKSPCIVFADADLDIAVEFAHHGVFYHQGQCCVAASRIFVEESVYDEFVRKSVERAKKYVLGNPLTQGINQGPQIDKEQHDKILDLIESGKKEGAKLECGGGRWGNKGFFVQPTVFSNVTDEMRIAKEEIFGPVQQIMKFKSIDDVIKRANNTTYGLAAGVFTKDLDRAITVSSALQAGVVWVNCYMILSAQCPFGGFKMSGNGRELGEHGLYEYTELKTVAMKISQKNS
# Rattus norvegicus [2] = assay: Blood EtOH level in rats following the administration of the compound.; type: functional
# Rattus norvegicus [3] = assay: Blood acetaldehyde level in rats following the administration of the compound.; type: functional
inhibition [1] [%],SMILES,Potency (Rattus norvegicus [2]) [mM],Potency (Rattus norvegicus [3]) [mM]
66,CC(C)CSC(=N)N,,
88,C=CCSC(=N)N,,
82,CCCCSC(=N)N,,
,CC(=O)NCCSC(=N)N,50.1,0.067
